Assay results: patent US20130030045A1, “METHOD OF PREVENTING AND TREATING OSTEOPOROSIS” (priority 2011, published 2013)
Like-named read-outs stand apart in the source and are kept apart here.

Columns and labels:
MBMMφ cells [1] = test: TRAP activity assay, differentiation of MBMMφ cells induced with RANKL and M-CSF; assay type: cell-based, mouse; details: for IC50: Mus musculus, 2 days with compound, then 20 ng/ml RANKL and 10 ng/ml M-CSF for 5 days, read-out: IC50, s-TRAP activity (inhibition of differentiation of MBMMφ cells)
Description: In some embodiments of the present invention, preosteoclast cells used are obtained from bone marrow in hind leg bone of C57BL/6J Narl mice, called as MBMMφ cells (mouse bone marrow macrophages), and are cultured in alpha-MEM medium (including 10% FBS and 1× antibiotic-antimycotic solution) and then added with M-CSF (macrophage colony-stimulating factor) and RANKL (receptor for activation of nuclear factor kappa B ligand) for inducing cell differentiation and maturation.
(§1) The cultured medium for cells derived from MBMMφ differentiation is removed, and cells are added with new medium. After incubation for 1 hour, and the activity of secretory type acid phosphatase in the medium is measured. First, 30 μl medium to be measured is taken out and added with […] TRAP assay reagent (0.1 M acetate buffer, 60 mM sodium tartrate and 5 mg/ml pNPP) followed by incubating for 30 minutes at 37° C., then adding 60 μl 0.5N NaOH solution to terminate the reaction and OD value at 405 nm of each specimen being measured.
In an embodiment, different concentrations of flavone (chemical structure as shown in FIG. 2(A)), 6-methoxy flavone (FIG. 2(B)), 7-methoxy flavone (FIG. 2(C)), 6-hydroxy flavone (FIG. 2(D)) and 7-hydroxy flavone (FIG. 2(E)) are respectively added into the cultured medium of MBMMφ cells, which had been cultured in 10 ng/ml M-SCF without treating with flavone components for 5 days, for 2 days. Next, after adding 20 ng/ml RANKL and 10 ng/ml M-CSF to induce cell differentiation for another 5 days, TRAP activity assay is performed.

SaOS-2 cells = test: Calcium staining for calcium deposition (CaP assay) of SaOS-2 cells; assay type: cell-based, human; details: 10 μM, 7 day; data not shown
MC3T3-E1 cells [2] = test: Alkaline phosphatase (ALP) assay, differentiation of MC3T3-E1 cells; assay type: cell-based; details: 4 days
Description: In experiments, 10,000 cells/well are cultured with alpha-MEM medium (including 10% FBS and 1× antibiotic-antimycotic solution) for 4 days at 37° C. in 5% CO2 incubator. After adding different concentrations of methoxy flavones or hydroxy flavones to react for 4 days, the cultured medium is removed and 100 μl 4% formaldehyde is added to fix cells for 10 minutes. After washing cells, 30 μl p-nitrophenyl phosphate (pNPP) solution is added to react for 30 minutes at 37° C., and then 30 μl 0.5 N NaOH is added to stop the reaction. Finally, OD value is measured at […] using ELISA reader.
In an embodiment, different concentrations of 6-methoxy flavone and 7-methoxy flavone are respectively added into MC3T3-E1 cells (a kind of preosteoblast cells) in alpha-MEM medium (containing 10% FBS, 1× antibiotic-antimycotic solution, 10 mM β-glycerophsphate, 50 μg/ml VitC, 10^−7 M dexamethasone) for 4 days to induce cell osteogenic differentiation and maturation. Because differentiated MC3T3-E1 cells will express the ALP activity, ALP activity assay is used to know the extent of cell differentiation. FIGS. 5(A) and 5(B) illustrate ALP activities at four different concentrations (1.25 μM, 2.5 μM, 5 μM, 10 μM) of 6-methoxy flavone and 7-methoxy flavone, respectively, in comparison with controls (with only PBS, or without 6-methoxy flavone or 7-methoxy flavone but with equal volume of vehicle, DMSO).
In still another embodiment, different concentrations (0.4 μM, 2 μM, 10 μM, 50 μM) of flavone, 7-methoxy flavone and 6-hydroxy flavone are respectively added into MC3T3-E1 cells in alpha-MEM medium with 10% FBS, 1× antibiotic-antimycotic solution, 10 mM β-glycerophsphate, 50 μg/ml Vitamin C, and 10^−7 M dexamethasone for 4 day incubation to induce cell differentiation and maturation. FIGS. 7(A)-7(C) illustrate ALP activities of MC3T3-E1 cells after exposed to four different concentrations of flavone, 7-methoxy flavone and 6-hydroxy flavone, respectively, in comparison with control (without flavone, 7-methoxy flavone or 6-hydroxy flavone, but with vehicle DMSO).

MC3T3-E1 cells [3] = test: MTT assay, MC3T3-E1 cell growth; details: 1 day
Description: In an embodiment, different concentrations of flavone, 6-methoxy flavone, 7-methoxy flavone, 6-hydroxy flavone and 7-hydroxy flavone are respectively added into 3,000 MC3T3-E1 cells per well in the cultured medium for 1 day.

[4] = test system: human mesenchymal stem cells (hMSCs); test: Calcein fluorescent test for calcium precipitation, osteogenesis of human mesenchymal stem cells; assay type: cell-based; details: FIG. 10, calcein fluorescent test
Description: FIGS. 10(A)-10(D) respectively illustrate the effects of 6-methoxy flavone, 7-methoxyl flavone, 7-hydroxy flavone, and 6-hydroxy flavone on the osteogenesis of human mesenchymal stem cells, based on calcein fluorescent test for calcium precipitation.
Moreover, the present invention also measures the effects of methoxy flavones and hydroxyl flavones on human mesenchymal stem cells (hMSCs).

MBMMφ cells [5] = test: MTT assay, MBMMφ cell growth
Description: (§2) In an embodiment, different concentrations (0 μM, 1 μM, 5 μM, 10 μM, 15 μM, 20 μM, and 25 μM) of 7-methoxy flavone are respectively added into 3,000 MBMMφ cells/well in the cultured medium containing M-CSF for 1 day incubation. Next, MTT reagent is used to detect the OD value of cells so as to determine the growth situation of MBMMφ cells.

MBMMφ cells [6] = test system: MBMMφ cells
Description: as §2

MC3T3-E1 cells [7] = test: Alizarin Red S stain, calcium deposition of MC3T3-E1 cells; assay type: cell-based; details: at 5 μM, 10 μM, 20 μM and 40 μM; 20 days
Description: In an embodiment, different concentrations (2.5 μM, 5 μM, 10 μM, 20 μM and 40 μM) of 7-methoxy flavone are respectively added into the cultured medium of MC3T3-E1 cell incubated for 20 days, wherein the cultured medium with 7-methoxy flavone is changed every 4 days. Next, Alizarin Red S stain is used to observe the calcification situation of MC3T3-E1 cells, and OD value at 562 nm is measured for quantitative analysis.

RAW 264.7 cells [8] = test: TRAP activity assay, differentiation of RAW 264.7 cells; assay type: cell-based, mouse; details: at 8 μM, 16 μM, and 32 μM; compared to control
Description: as §1
In another embodiment, different concentrations of 7-methoxy flavone are respectively added into the cultured medium of RAW 264.7 cells (mouse leukaemic monocyte macrophages, another kind of preosteoclast cells) for 2 days. Next, after adding 20 ng/ml
RANKL and 10 ng/ml M-CSF to induce RAW 264.7 cell differentiation for 3 days, TRAP activity assay is then performed.

RAW 264.7 cells [9] = test: Toxicity to RAW 264.7 cells; assay type: cell-based, mouse; details: data not shown
[10] = at the concentration of equal to or larger than 10 μM
[11] = at the concentration of equal to or larger than 5 μM

O=c1cc(-c2ccccc2)oc2ccc(O)cc12 [6-hydroxy flavone]
IC50 (MBMMφ cells [1]): 7.3 ± 0.2 µM | effect on differentiation of MBMMφ cells (s-TRAP activity) (MBMMφ cells [1]; [10]): significantly inhibit the differentiation of MBMMφ cells | calcium deposition of SaOS-2 cells (SaOS-2 cells): significantly enhance calcium deposition of SaOS-2 cells | effect on differentiation of MC3T3-E1 cells (ALP activity) (MC3T3-E1 cells [2]; at 4 μM and 16 μM, FIG. 6): significantly stimulate the differentiation of MC3T3-E1 cells | effect on differentiation of MC3T3-E1 cells (ALP activity) (MC3T3-E1 cells [2]; at 10 μM and 50 μM, FIG. 7): obviously stimulate the differentiation of MC3T3-E1 cells | growth of MC3T3-E1 cells (MTT, cytotoxicity) (MC3T3-E1 cells [3]; mouse): do not affect the growth of MC3T3-E1 cells | calcium deposition of hMSCs [4]: does not inhibit calcium deposition even at high concentration | growth of MBMMφ cells (MTT, cytotoxicity) (MBMMφ cells [5]; not shown): do not influence the growth of MBMMφ cells

COc1ccc2oc(-c3ccccc3)cc(=O)c2c1 [6-methoxy flavone]
IC50 (MBMMφ cells [1]): 5.4 ± 0.2 µM | effect on differentiation of MBMMφ cells (s-TRAP activity) (MBMMφ cells [1]; [11]): manifestly inhibit the differentiation of MBMMφ cells | effect on differentiation of MC3T3-E1 cells (ALP activity) (MC3T3-E1 cells [2]; at 5 μM and 10 μM, FIG. 5): efficiently enhance the differentiation of MC3T3-E1 cells | growth of MC3T3-E1 cells (MTT, cytotoxicity) (MC3T3-E1 cells [3]; mouse): do not affect the growth of MC3T3-E1 cells | calcium deposition of hMSCs [4]: greatly inhibits calcium deposition of hMSCs | growth of MBMMφ cells (MTT, cytotoxicity) (MBMMφ cells [5]; not shown): do not influence the growth of MBMMφ cells

O=c1cc(-c2ccccc2)oc2cc(O)ccc12 [7-hydroxy flavone]
IC50 (MBMMφ cells [1]): 10.9 ± 1.3 µM | effect on differentiation of MBMMφ cells (s-TRAP activity) (MBMMφ cells [1]; [10]): significantly inhibit the differentiation of MBMMφ cells | calcium deposition of SaOS-2 cells (SaOS-2 cells): significantly enhance calcium deposition of SaOS-2 cells | effect on differentiation of MC3T3-E1 cells (ALP activity) (MC3T3-E1 cells [2]; at 16 μM, FIG. 6): enhance effectively the cell differentiation | growth of MC3T3-E1 cells (MTT, cytotoxicity) (MC3T3-E1 cells [3]; different concentrations, FIG. 8): do not affect the growth of MC3T3-E1 cells | calcium deposition of hMSCs [4]: inhibit calcium deposition on hMSCs only at high concentration | growth of MBMMφ cells (MTT, cytotoxicity) (MBMMφ cells [5]; not shown): do not influence the growth of MBMMφ cells

O=c1cc(-c2ccccc2)oc2ccccc12 [flavone, reference compound]
effect on differentiation of MBMMφ cells (s-TRAP activity) (MBMMφ cells [1]; 1 μM, 5 μM, 10 μM, 20 μM, in comparison with control): does not have obvious effect | IC50 (MBMMφ cells [1]): > 20 µM | growth of MBMMφ cells (MTT, cytotoxicity) (MBMMφ cells [6]): do not influence the growth of MBMMφ cells | effect on differentiation of MC3T3-E1 cells (ALP activity) (MC3T3-E1 cells [2]; 0.25 μM, 1 μM, 4 μM, 16 μM, FIG. 6): does not stimulate the differentiation of MC3T3-E1 cells | effect on differentiation of MC3T3-E1 cells (ALP activity) (MC3T3-E1 cells [2]; 0.4 μM, 2 μM, 10 μM, 50 μM, FIG. 7): does not significantly stimulate the differentiation of MC3T3-E1 cells | growth of MC3T3-E1 cells (MTT, cytotoxicity) (MC3T3-E1 cells [3]; mouse): do not affect the growth of MC3T3-E1 cells

COc1ccc2c(=O)cc(-c3ccccc3)oc2c1 [7-methoxy flavone]
IC50 (MBMMφ cells [1]): 7.1 ± 0.6 µM | effect on differentiation of MBMMφ cells (s-TRAP activity) (MBMMφ cells [1]; [11]): manifestly inhibit the differentiation of MBMMφ cells | calcium deposition of MC3T3-E1 cells (Alizarin Red S, OD 562 nm) (MC3T3-E1 cells [7]): effectively enhance calcium deposition of MC3T3-E1 cells | calcium deposition of SaOS-2 cells (SaOS-2 cells): significantly enhance calcium deposition of SaOS-2 cells | effect on differentiation of MC3T3-E1 cells (ALP activity) (MC3T3-E1 cells [2]; at 4 μM and 16 μM, FIG. 6): significantly stimulate the differentiation of MC3T3-E1 cells | effect on differentiation of MC3T3-E1 cells (ALP activity) (MC3T3-E1 cells [2]; at 5 μM and 10 μM, FIG. 5): efficiently enhance the differentiation of MC3T3-E1 cells | effect on differentiation of MC3T3-E1 cells (ALP activity) (MC3T3-E1 cells [2]; at 10 μM and 50 μM, FIG. 7): obviously stimulate the differentiation of MC3T3-E1 cells | growth of MC3T3-E1 cells (MTT, cytotoxicity) (MC3T3-E1 cells [3]; mouse): do not affect the growth of MC3T3-E1 cells | calcium deposition of hMSCs [4]: inhibit calcium deposition on hMSCs only at high concentration | effect on differentiation of RAW 264.7 cells (TRAP activity) (RAW 264.7 cells [8]): significantly inhibit the differentiation of RAW 264.7 cells | toxicity to RAW 264.7 cells (RAW 264.7 cells [9]): no toxicity to RAW 264.7 cells | growth of MBMMφ cells (MTT, cytotoxicity) (MBMMφ cells [5]; 0-25 μM, 1 day incubation, medium containing M-CSF): does not affect the growth of MBMMφ cells
